Assay results from patent US7202267B2, “Acyloxypyrrolidine derivatives, preparation thereof and application thereof in therapeutic” (Sanofi-aventis, priority 2002, dated 2007).
pIC50: −log10 of the molar value.

How the values were obtained:
[1] = molecular target: T1, human V1a receptors (Homo sapiens, UniProt P37288); assay: Displacement of [3H]-AVP binding to human V1a receptors; conditions: cellular or membrane preparations
T1 construct: host or cells: cellular or membrane preparations
Description: The affinity of the compounds of formula (I) according to the invention, for V1a receptors for arginine-vasopressin, was determined in vitro using the method described by M. THIBONNIER et al., J. Biol. Chem., 1994, 269, 3304–3310. This method consists in studying, in vitro, the displacement of […] arginine-vasopressin ([^3H]-AVP) to V1a receptors present on cellular or membrane preparations bearing rat or human V1a receptors.

[2] = molecular target: T2, human V1b receptors (Homo sapiens, UniProt P47901); assay: Displacement of [3H]-AVP binding to human V1b receptors; conditions: cellular or adenohypophyseal membrane preparations
T2 construct: host or cells: cellular or adenohypophyseal membrane preparations
T2 sequence (P47901 1-424): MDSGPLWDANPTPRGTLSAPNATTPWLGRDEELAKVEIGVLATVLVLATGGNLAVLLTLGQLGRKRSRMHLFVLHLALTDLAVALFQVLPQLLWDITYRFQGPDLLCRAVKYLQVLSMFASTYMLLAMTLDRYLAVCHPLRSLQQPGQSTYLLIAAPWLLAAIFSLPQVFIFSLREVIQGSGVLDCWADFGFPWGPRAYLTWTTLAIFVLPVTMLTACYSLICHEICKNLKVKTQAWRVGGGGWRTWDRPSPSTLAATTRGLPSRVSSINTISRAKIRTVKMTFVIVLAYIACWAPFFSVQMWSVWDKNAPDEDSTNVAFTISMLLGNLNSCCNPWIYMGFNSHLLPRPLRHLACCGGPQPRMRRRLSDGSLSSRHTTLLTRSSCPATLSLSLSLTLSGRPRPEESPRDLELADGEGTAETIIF
Description: The affinity of the compounds of formula (I) according to the invention, for V1b receptors for arginine-vasopressin, was determined in vitro using the method described by Y. DE KEYSER et al., Febs Letters, 1994, 356, 215–220. This method consists in studying, in vitro, the displacement of […] arginine-vasopressin ([^3H]-AVP) to V1b receptors present on cellular or adenohypophyseal membrane preparations bearing rat or human V1b receptors.

T1 sequence (P37288 whole entry): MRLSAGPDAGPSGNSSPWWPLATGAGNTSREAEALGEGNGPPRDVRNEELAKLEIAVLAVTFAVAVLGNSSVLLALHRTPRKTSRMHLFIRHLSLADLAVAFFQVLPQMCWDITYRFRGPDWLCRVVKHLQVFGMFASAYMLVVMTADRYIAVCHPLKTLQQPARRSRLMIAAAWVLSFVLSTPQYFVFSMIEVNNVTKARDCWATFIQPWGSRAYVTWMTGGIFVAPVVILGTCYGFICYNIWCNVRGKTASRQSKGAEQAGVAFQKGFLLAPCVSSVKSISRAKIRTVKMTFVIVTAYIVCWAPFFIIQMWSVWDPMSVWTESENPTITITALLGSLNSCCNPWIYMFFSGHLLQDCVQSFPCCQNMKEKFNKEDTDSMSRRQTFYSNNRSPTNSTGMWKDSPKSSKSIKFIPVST

SMILES: COc1ccc(S(=O)(=O)N2C(=O)[C@@](c3ccccc3OC)(N3C[C@H](OC(C)=O)C[C@H]3C(=O)N(C)C)c3cc(Cl)ccc32)c(OC)c1 [Example 1, (3R,5S)-1-[(3R)-5-chloro-1-[(2,4-dimethoxyphenyl)sulfonyl]-3-(2-methoxyphenyl)-2-oxo-2,3-dihydro-1H-indol-3-yl]-5-[(dimethylamino)carbonyl]-3-pyrrolidinyl acetate]
- pIC50 [1]: 7.08
- pIC50 [2]: 8.47
